Measured values taken from ChEMBL document CHEMBL1201862, “PubChem BioAssay data set” (2004).
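Protocol summary: plate cells (96-well), add compound at 5 concentrations, incubate 48 h, interpolate endpoints linearly. At the GI50, growth is halved.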 Activity calls are given as the source filed them. Rule as the data show it: active = GI50 up to about 1.1 µM and inactive = higher.

Assays:
Experiment in all cases: growth of human tumour cells (NCI), 48 h
LXFL 529 = system: LXFL 529
DMS-114 = system: DMS-114
XF498 = system: XF498
SNB-78 = system: SNB-78
DLD-1 = system: DLD-1
KM-20L2 = system: KM-20L2
DMS-273 = system: DMS-273
HOP-18 = system: HOP-18
RXF 631 = system: RXF 631

SMILES	GI50 (LXFL 529)	GI50 (DMS-114)	GI50 (XF498)	GI50 (SNB-78)	GI50 (DLD-1)	GI50 (KM-20L2)	GI50 (DMS-273)	GI50 (HOP-18)	GI50 (RXF 631)
COc1ccc(OC)c2c1C(=O)C(Cl)=C(Cl)C2=O	1.95 µM (inactive)	2.16 µM (inactive)	1.61 µM (inactive)	4.61 µM (inactive)	3.84 µM (inactive)	10.5 µM (inactive)	7.57 µM (inactive)	3.54 µM (inactive)	–
CN(C)CCCNc1ccc2ncn3c4ccccc4c(=O)c1c23	8.55 µM (inactive)	10.5 µM (inactive)	–	14.2 µM (inactive)	4.94 µM (inactive)	7.41 µM (inactive)	–	5.73 µM (inactive)	4.7 µM (inactive)
CC(C)Cc1ccc(C(C)CC2=CCC(CN(C)C)C2=O)cc1 (stereo not given)	1.73 µM (inactive)	4.27 µM (inactive)	–	6.43 µM (inactive)	2.33 µM (inactive)	11.4 µM (inactive)	4.41 µM (inactive)	18.5 µM (inactive)	16.6 µM (inactive)
O=C(CCN1CCCCC1)N1CCc2c([nH]c3ccccc23)C1c1cccnc1 (stereo not given)	20.9 µM (inactive)	27.9 µM (inactive)	21.2 µM (inactive)	> 86.7 µM (inactive)	48.4 µM (inactive)	30.1 µM (inactive)	39.8 µM (inactive)	> 100 µM (inactive)	31 µM (inactive)
CC1=C(O)/C(=C/C(C)CCC/C(C)=C/C=C/C(C)CCCc2ccoc2)OC1=O (stereo not given)	31.8 µM (inactive)	49.7 µM (inactive)	7.08 µM (inactive)	18.3 µM (inactive)	31 µM (inactive)	29.6 µM (inactive)	55.3 µM (inactive)	–	–
CC(C)(C)/N=C\N1CCC(C(c2ccccc2)c2ccccc2)CC1	–	72.1 µM (inactive)	30.8 µM (inactive)	64.6 µM (inactive)	> 100 µM (inactive)	14.9 µM (inactive)	65.3 µM (inactive)	53.2 µM (inactive)	–
Cc1ccc(/N=N/c2c(-c3ccccc3)nn(C(=O)CC(=O)Nc3ccc(Cl)cc3)c2-c2ccccc2)cc1	27.9 µM (inactive)	44.5 µM (inactive)	–	79.6 µM (inactive)	83.6 µM (inactive)	63.4 µM (inactive)	> 100 µM (inactive)	> 100 µM (inactive)	59.4 µM (inactive)
CC1c2[nH]c3ccccc3c2CCN1O (stereo not given)	> 100 µM (inactive)	> 100 µM (inactive)	–	> 100 µM (inactive)	> 100 µM (inactive)	> 100 µM (inactive)	> 100 µM (inactive)	> 100 µM (inactive)	> 100 µM (inactive)
CN(C)c1n/c(=N/c2ccc3c(c2)OCO3)ss1	35.3 µM (inactive)	38.6 µM (inactive)	48.5 µM (inactive)	44 µM (inactive)	79.8 µM (inactive)	39.9 µM (inactive)	66.5 µM (inactive)	> 100 µM (inactive)	–
CSc1nc(NC2OCC(OC(C)=O)C(OC(C)=O)C2OC(C)=O)c2c(n1)OCC2=O (stereo not given)	> 100 µM (inactive)	> 100 µM (inactive)	–	> 100 µM (inactive)	> 100 µM (inactive)	> 100 µM (inactive)	> 100 µM (inactive)	–	–
C=CC(OCC)(OCC)OCC	77.3 µM (inactive)	15.6 µM (inactive)	> 100 µM (inactive)	> 100 µM (inactive)	35.2 µM (inactive)	> 100 µM (inactive)	18.2 µM (inactive)	> 100 µM (inactive)	> 100 µM (inactive)
COC(=O)[C@H](C)[C@H]1CC[C@@](C)([C@H]2CC3C(C)(C)[C@H]4CCC(C)=C[C@H]4C[C@@]3(C)O2)OO1 (stereo not given in full)	2.03 µM (inactive)	3.58 µM (inactive)	10 µM (inactive)	10.8 µM (inactive)	12 µM (inactive)	13.4 µM (inactive)	12.6 µM (inactive)	–	–
NS(=O)(=O)c1ccc(NC(=O)Cc2nc3ccccc3s2)cc1	16.8 µM (inactive)	15.1 µM (inactive)	16.2 µM (inactive)	19.5 µM (inactive)	15.5 µM (inactive)	18.7 µM (inactive)	18.7 µM (inactive)	17.8 µM (inactive)	16.4 µM (inactive)
CC1(C)CC2(S(=O)(=O)c3ccccc3)ON1CC2S(=O)(=O)c1ccccc1 (stereo not given)	76.9 µM (inactive)	67.1 µM (inactive)	–	–	> 100 µM (inactive)	> 100 µM (inactive)	53.6 µM (inactive)	–	–
COCc1cc2c(s1)C(=O)C1=C(C2=O)C2(C=C(Br)C(=O)C(Br)=C2)CCN1	2.72 µM (inactive)	1.73 µM (inactive)	7.41 µM (inactive)	7.59 µM (inactive)	6.95 µM (inactive)	0.184 µM (active)	2.85 µM (inactive)	15.1 µM (inactive)	–
CCCCCCCCCCCCCCC(C)CCC(=O)O (stereo not given)	–	–	59.4 µM (inactive)	> 100 µM (inactive)	> 100 µM (inactive)	–	–	> 100 µM (inactive)	–

SMILES	GI50 (LXFL 529)	GI50 (DMS-114)	GI50 (XF498)	GI50 (SNB-78)	GI50 (DLD-1)	GI50 (KM-20L2)	GI50 (DMS-273)	GI50 (HOP-18)	GI50 (RXF 631)
C/C(=N\NC(=S)NNC(=S)N(C)c1ccccc1)c1ccccn1	0.815 µM (active)	0.399 µM (active)	14.1 µM (inactive)	8.55 µM (inactive)	0.618 µM (active)	–	1.46 µM (inactive)	0.198 µM (active)	–
COC(=O)C1Cc2c(n(C)c3ccccc23)C(c2ccccc2)N1 (stereo not given)	33.7 µM (inactive)	21.8 µM (inactive)	–	> 100 µM (inactive)	> 10 µM (inactive)	57.8 µM (inactive)	38.8 µM (inactive)	> 100 µM (inactive)	> 100 µM (inactive)
CCCNc1ncnc2c1cnn2C	–	> 100 µM (inactive)	> 100 µM (inactive)	> 100 µM (inactive)	–	> 100 µM (inactive)	> 100 µM (inactive)	> 100 µM (inactive)	–
O=C(/C=C/c1ccc(Cl)c(Cl)c1)C1CCC(Cl)CC1 (stereo not given)	18.2 µM (inactive)	16.3 µM (inactive)	16 µM (inactive)	21.9 µM (inactive)	15.6 µM (inactive)	20.7 µM (inactive)	16.8 µM (inactive)	27.5 µM (inactive)	18.5 µM (inactive)
O=C1c2ccccc2C(=O)c2sc(Nc3cccc(Cl)c3)nc21	1.48 µM (inactive)	1.36 µM (inactive)	1.73 µM (inactive)	–	1.94 µM (inactive)	7.45 µM (inactive)	1.87 µM (inactive)	1.63 µM (inactive)	–
O=c1c2ccccc2c(=O)c2c1cc(Cl)c1[nH]c3c([nH]c12)c(Cl)cc1c(=O)c2ccccc2c(=O)c13	–	> 100 µM (inactive)	–	> 100 µM (inactive)	> 100 µM (inactive)	> 100 µM (inactive)	> 100 µM (inactive)	–	–
CCOc1ccc(/N=C\c2ccc3cc(C)ccc3n2)cc1	30.5 µM (inactive)	31.1 µM (inactive)	> 100 µM (inactive)	> 100 µM (inactive)	48.8 µM (inactive)	34.7 µM (inactive)	43.2 µM (inactive)	> 100 µM (inactive)	> 100 µM (inactive)
O/N=C1/C(=C/c2ccc3c(c2)OCO3)CCCC1C(NO)c1ccc2c(c1)OCO2 (stereo not given)	20 µM (inactive)	22.6 µM (inactive)	22.7 µM (inactive)	31.3 µM (inactive)	28.4 µM (inactive)	18.2 µM (inactive)	21.8 µM (inactive)	18.2 µM (inactive)	–
CC(=O)C(CN(C)Cc1ccccc1)C(c1ccccc1)c1c(O)c2ccccc2oc1=O (stereo not given)	> 100 µM (inactive)	> 100 µM (inactive)	–	> 100 µM (inactive)	> 100 µM (inactive)	55.8 µM (inactive)	> 100 µM (inactive)	–	–
Cc1cc(NS(=O)(=O)c2ccc(Nc3c4ccccc4nc4c(C(=O)N5CCN(CCO)CC5)ccc(Cl)c34)cc2)no1	–	> 100 µM (inactive)	> 100 µM (inactive)	–	52.5 µM (inactive)	> 100 µM (inactive)	> 100 µM (inactive)	–	83.9 µM (inactive)
COc1cc(OC)c(SSCCCCS(=O)O)c(OC)c1	12.2 µM (inactive)	16.6 µM (inactive)	13.9 µM (inactive)	12.1 µM (inactive)	17.5 µM (inactive)	18.7 µM (inactive)	16.7 µM (inactive)	18 µM (inactive)	> 10 µM (inactive)
CCN(CC)[C@@H]1c2cc3c(cc2C(c2cc(OC)c(O)c(OC)c2)C2C(=O)CO[C@@H]21)OCO3 (stereo not given in full)	> 100 µM (inactive)	> 100 µM (inactive)	> 100 µM (inactive)	–	> 100 µM (inactive)	> 100 µM (inactive)	> 100 µM (inactive)	–	> 100 µM (inactive)
O=C(O)CN(c1ccccc1)S(=O)(=O)c1cccc([N+](=O)[O-])c1	> 100 µM (inactive)	–	> 100 µM (inactive)	–	> 100 µM (inactive)	> 100 µM (inactive)	> 100 µM (inactive)	> 100 µM (inactive)	–
C[N+](C)(C)CC1CCCC(C[N+](C)(C)C)C1=NO (stereo not given)	> 100 µM (inactive)	–	> 100 µM (inactive)	> 100 µM (inactive)	> 100 µM (inactive)	> 100 µM (inactive)	> 100 µM (inactive)	> 100 µM (inactive)	–
C=C1CC[C@@H]2C(C)(C)CCC[C@@]2(C)[C@@H]1Cc1cc(O)ccc1O	2.11 µM (inactive)	1.89 µM (inactive)	–	1.93 µM (inactive)	5.21 µM (inactive)	17.3 µM (inactive)	5.92 µM (inactive)	11.2 µM (inactive)	–
